Assay results as given in US6872729B2, “Pyrimidinylbenzimidazole and triazinylbenzimidazole derivatives and agricultural/horticultural fungicides” (Kumiai Chemical Industry Co., Ltd., priority 1998, dated 2005).

What follows are compounds tested on Erysiphe graminis (assay: Test for preventive effect on wheat powdery mildew). Conditions: wheat (Norin-61-go) seedlings, 500 ppm active ingredient, preventive treatment; diseased area of first leaves 10 days after inoculation with Erysiphe graminis.
Assay type: in vivo
Description: Test for Preventive Effect on Wheat Powdery Mildew 9 Wheat seeds (variety: Norin-61-go) were sown in each 9 cm×9 cm polyvinyl chloride pot, grown in a greenhouse for 8 days, then treated with 10 ml per pot of aqueous solutions of wettable powders prepared in accordance with Formulation Example 2, at a concentration of 500 ppm in terms of the active ingredients and dried in the air. Then, the seedlings were inoculated with Erysiphe graminis spores by sprinkle over the plant and placed in a greenhouse of from 20 to 25° C. 10 days after the inoculation, the total diseases area of the first leaves in each pot was observed and evaluated on the basis of the standards shown in Table 67. [table]

SMILES	Biological effectiveness
COc1nc(OC)nc(-n2c(C)nc3cc(C(=O)c4ccccc4)ccc32)n1 [Compound I-235]	A (No diseased area)
COc1nc(OC)nc(-n2c(C)nc3cc(C#N)ccc32)n1 [Compound I-239]	A (No diseased area)
COc1nc(OC)nc(-n2c(C)nc3ccc(C)cc32)n1 [Compound I-242]	A (No diseased area)
COc1nc(OC)nc(-n2c(C)nc3c(C)cc(C)cc32)n1 [Compound I-250]	B (Diseased area of less than 25%)
COc1nc(OC)nc(-n2c(C)nc3cc(C)c(C)cc32)n1 [Compound I-251]	A (No diseased area)
COc1cc(OC)nc(-n2c(Cl)nc3cc(F)ccc32)n1 [Compound I-255]	A (No diseased area)
COc1cc(OC)nc(-n2c(Cl)nc3cc(Cl)ccc32)n1 [Compound I-256]	A (No diseased area)
COc1cc(OC)nc(-n2c(Cl)nc3cc(C(F)(F)F)ccc32)n1 [Compound I-259]	A (No diseased area)
COc1ccc2c(c1)nc(Cl)n2-c1nc(OC)cc(OC)n1 [Compound I-260]	A (No diseased area)
CCOc1ccc2c(c1)nc(Cl)n2-c1nc(OC)cc(OC)n1 [Compound I-261]	B (Diseased area of less than 25%)
COc1cc(OC)nc(-n2c(Cl)nc3cc(OC(F)(F)F)ccc32)n1 [Compound I-263]	A (No diseased area)
COc1cc(OC)nc(-n2c(Cl)nc3ccc(Cl)cc32)n1 [Compound I-271]	A (No diseased area)
COc1cc(OC)nc(-n2c(Cl)nc3ccc(C)cc32)n1 [Compound I-272]	A (No diseased area)
COc1nc(OC)nc(-n2c(Cl)nc3cc(C)ccc32)n1 [Compound I-279]	A (No diseased area)
COc1cc(OC)nc(-n2c(C(F)(F)F)nc3cc(F)ccc32)n1 [Compound I-295]	A (No diseased area)
COc1cc(OC)nc(-n2c(C(F)(F)F)nc3cc(Cl)ccc32)n1 [Compound I-296]	A (No diseased area)
COc1cc(OC)nc(-n2c(C(F)(F)F)nc3cc(C(F)(F)F)ccc32)n1 [Compound I-299]	A (No diseased area)
COc1ccc2c(c1)nc(C(F)(F)F)n2-c1nc(OC)cc(OC)n1 [Compound I-300]	A (No diseased area)
CCOc1ccc2c(c1)nc(C(F)(F)F)n2-c1nc(OC)cc(OC)n1 [Compound I-301]	A (No diseased area)
COc1cc(OC)nc(-n2c(C(F)(F)F)nc3ccc(C)cc32)n1 [Compound I-307]	A (No diseased area)
COc1nc(OC)nc(-n2c(C(F)(F)F)nc3cc(F)ccc32)n1 [Compound I-309]	A (No diseased area)
COc1nc(OC)nc(-n2c(C(F)(F)F)nc3cc(Cl)ccc32)n1 [Compound I-310]	A (No diseased area)
COc1nc(OC)nc(-n2c(C(F)(F)F)nc3cc(Br)ccc32)n1 [Compound I-311]	A (No diseased area)
CCc1ccc2c(c1)nc(C(F)(F)F)n2-c1nc(OC)nc(OC)n1 [Compound I-313]	A (No diseased area)

SMILES	Biological effectiveness
CCCc1ccc2c(c1)nc(C(F)(F)F)n2-c1nc(OC)nc(OC)n1 [Compound I-314]	A (No diseased area)
COc1nc(OC)nc(-n2c(C(F)(F)F)nc3cc(C(C)C)ccc32)n1 [Compound I-315]	B (Diseased area of less than 25%)
COc1nc(OC)nc(-n2c(C(F)(F)F)nc3cc(C(C)(C)C)ccc32)n1 [Compound I-316]	B (Diseased area of less than 25%)
COc1ccc2c(c1)nc(C(F)(F)F)n2-c1nc(OC)nc(OC)n1 [Compound I-318]	A (No diseased area)
COc1nc(OC)nc(-n2c(C(F)(F)F)nc3cc(OC(F)(F)F)ccc32)n1 [Compound I-321]	A (No diseased area)
COc1nc(OC)nc(-n2c(C(F)(F)F)nc3cc(I)ccc32)n1 [Compound I-327]	A (No diseased area)
CCc1nc2cc(F)ccc2n1-c1nc(OC)cc(OC)n1 [Compound I-332]	B (Diseased area of less than 25%)
CCc1nc2cc(Cl)ccc2n1-c1nc(OC)cc(OC)n1 [Compound I-333]	A (No diseased area)
CCc1nc2cc(C)ccc2n1-c1nc(OC)cc(OC)n1 [Compound I-334]	A (No diseased area)
CCc1nc2cc(C(F)(F)F)ccc2n1-c1nc(OC)cc(OC)n1 [Compound I-335]	A (No diseased area)
CCc1nc2cc(OC)ccc2n1-c1nc(OC)cc(OC)n1 [Compound I-336]	A (No diseased area)
CCc1nc2cc(Cl)ccc2n1-c1nc(OC)nc(OC)n1 [Compound I-346]	A (No diseased area)
CCCc1nc2cc(Cl)ccc2n1-c1nc(OC)nc(OC)n1 [Compound I-358]	A (No diseased area)
COc1nc(OC)nc(-n2c(C(C)C)nc3cc(Cl)ccc32)n1 [Compound I-359]	A (No diseased area)
COc1nc(OC)nc(-n2c(C3CC3)nc3cc(Cl)ccc32)n1 [Compound I-360]	B (Diseased area of less than 25%)
COc1ccc2c(c1)nc(N)n2-c1nc(OC)cc(OC)n1 [Compound I-364]	A (No diseased area)
COc1cc(OC)nc(-n2c(N)nc3ccc(C)cc32)n1 [Compound I-366]	A (No diseased area)
COc1nc(OC)nc(-n2c(N)nc3cc(C)ccc32)n1 [Compound I-369]	B (Diseased area of less than 25%)
CNc1nc2cc(Cl)ccc2n1-c1nc(OC)nc(OC)n1 [Compound I-375]	A (No diseased area)
COc1nc(OC)nc(-n2c(N(C)C)nc3cc(Cl)ccc32)n1 [Compound I-376]	B (Diseased area of less than 25%)
COCc1nc2cc(Cl)ccc2n1-c1nc(OC)nc(OC)n1 [Compound I-377]	A (No diseased area)
COc1nc(OC)nc(-n2c(-c3ccccc3)nc3cc(Cl)ccc32)n1 [Compound I-378]	A (No diseased area)
COc1nc(OC)nc(-n2c(Cc3ccccc3)nc3cc(Cl)ccc32)n1 [Compound I-379]	A (No diseased area)
COc1cc(OC)nc(-n2c(C#N)nc3cc(Cl)ccc32)n1 [Compound I-380]	A (No diseased area)

SMILES	Biological effectiveness
COc1cc(OC)nc(-n2c(C#N)nc3cc(C)ccc32)n1 [Compound I-381]	A (No diseased area)
COc1cc(OC)nc(-n2c(SC)nc3cc(Cl)ccc32)n1 [Compound I-388]	A (No diseased area)
COc1cc(OC)nc(-n2c(SC)nc3cc(C)ccc32)n1 [Compound I-389]	B (Diseased area of less than 25%)
COc1nc(OC)nc(-n2c(SC)nc3cc(Cl)ccc32)n1 [Compound I-394]	A (No diseased area)
COc1cc(OC)nc(-n2c(C(Cl)(Cl)Cl)nc3cc(Cl)ccc32)n1 [Compound I-400]	A (No diseased area)
COc1cc(OC)nc(-n2c(C(Cl)(Cl)Cl)nc3ccc(C)cc32)n1 [Compound I-404]	B (Diseased area of less than 25%)
COc1nc(OC)nc(-n2c(C(Cl)(Cl)Cl)nc3cc(Cl)ccc32)n1 [Compound I-405]	A (No diseased area)
COc1nc(OC)nc(-n2c(C(Cl)(Cl)Cl)nc3cc(C)ccc32)n1 [Compound I-406]	A (No diseased area)
COc1cc(OC)nc(-n2c(S(C)(=O)=O)nc3cc(Cl)ccc32)n1 [Compound I-423]	A (No diseased area)
COc1cc(OC)nc(-n2c(S(C)(=O)=O)nc3cc(C)ccc32)n1 [Compound I-424]	A (No diseased area)
CCOc1nc(OC)nc(-n2c(C)nc3cc(Cl)ccc32)n1 [Compound I-438]	A (No diseased area)
CCOc1cc(OCC)nc(-n2cnc3ccccc32)n1 [Compound I-457]	B (Diseased area of less than 25%)
CCOc1cc(OCC)nc(-n2c(Cl)nc3ccccc32)n1 [Compound I-458]	A (No diseased area)
CCOc1cc(OCC)nc(-n2c(C)nc3ccccc32)n1 [Compound I-461]	A (No diseased area)
CCOc1cc(OCC)nc(-n2c(CC)nc3ccccc32)n1 [Compound I-462]	B (Diseased area of less than 25%)
CCOc1cc(OCC)nc(-n2c(C(F)(F)F)nc3ccccc32)n1 [Compound I-465]	B (Diseased area of less than 25%)
CCOc1cc(OCC)nc(-n2cnc3cc(F)ccc32)n1 [Compound I-479]	A (No diseased area)
CCOc1cc(OCC)nc(-n2cnc3cc(Cl)ccc32)n1 [Compound I-480]	A (No diseased area)
CCOc1cc(OCC)nc(-n2cnc3cc(C)ccc32)n1 [Compound I-482]	A (No diseased area)
CCOc1cc(OCC)nc(-n2cnc3cc(C(F)(F)F)ccc32)n1 [Compound I-483]	A (No diseased area)
CCOc1cc(OCC)nc(-n2cnc3ccc(Cl)cc32)n1 [Compound I-486]	A (No diseased area)
CCOc1nc(OCC)nc(-n2cnc3cc(Br)ccc32)n1 [Compound I-490]	A (No diseased area)
CCOc1cc(OCC)nc(-n2c(C)nc3cc(F)ccc32)n1 [Compound I-498]	A (No diseased area)
